From patent US20230085307A1, “PYRIDAZINONE COMPOUND AND HERBICIDE” (NISSAN CHEMICAL CORPORATION, priority 2019, published 2023)

How the values were obtained:
false cleavers = experiment: Test Example 4: herbicidal effect by soil treatment (Table 19, symbol Q); assay type: in vivo, false cleavers (Galium spurium); conditions: amount of applied herbicide 320 g/ha
Method in brief: (§1)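 Seeds were sown in sterilized diluvial soil and covered with about 1.5 cm of soil. An emulsion formulation diluted with water to a predetermined herbicide amount was sprayed evenly onto the soil surface. Plants grew in a greenhouse at 25° C. to 30° C., and the effect was scored three weeks after application using criteria from an earlier test.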

velvetleaf [1] = experiment: Test Example 4: herbicidal effect by soil treatment (Table 19, symbol M); assay type: in vivo, velvetleaf (Abutilon theophrasti); conditions: amount of applied herbicide 320 g/ha
Method in brief: as §1

oval-leafed pondweed = experiment: Test Example 1: herbicidal activity, application before weed generation under submerged conditions (Table 16, symbol C); assay type: in vivo, oval-leafed pondweed (Monochoria vaginalis); conditions: 320 g/ha applied herbicide
Method in brief: (§2)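 Alluvial soil was flooded to 4 cm depth, weed seeds were sown mixed and 2.5-leaf rice seedlings were transplanted. On sowing day, the compound's emulsion, diluted in water to a set dose, was applied to the water surface. Plants grew at 25–30 °C and were scored 0–5 after three weeks.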

blackgrass [2] = experiment: Test Example 5: herbicidal effect by foliage application, plastic box (Table 20, symbol J); assay type: in vivo, blackgrass (Alopecurus myosuroides); conditions: foliage application, 320 g/ha, three weeks after application
Method in brief: (§3)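 Plants sown in sterilized diluvial soil and grown 14 days in a greenhouse at 25° C to 30° C, then sprayed on the foliage with the compound's emulsion diluted in water to a predetermined herbicide amount. Injury to weeds and crops scored three weeks after application on a visual rating scale.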

chickweed [3] = experiment: Test Example 4: herbicidal effect by soil treatment (Table 19, symbol P); assay type: in vivo, common chickweed (Stellaria media); conditions: amount of applied herbicide 320 g/ha
Method in brief: as §1

chickweed [4] = experiment: Test Example 5: herbicidal effect by foliage application, plastic box (Table 20, symbol P); assay type: in vivo, common chickweed (Stellaria media); conditions: foliage application, 320 g/ha, three weeks after application
Method in brief: as §3

velvetleaf [5] = experiment: Test Example 5: herbicidal effect by foliage application, plastic box (Table 20, symbol M); assay type: in vivo, velvetleaf (Abutilon theophrasti); conditions: foliage application, 320 g/ha, three weeks after application
Method in brief: as §3

southern crabgrass [6] = experiment: Test Example 4: herbicidal effect by soil treatment (Table 19, symbol F); assay type: in vivo, southern crabgrass (Digitaria ciliaris); conditions: amount of applied herbicide 320 g/ha
Method in brief: as §1

rice flat sedge = experiment: Test Example 3: herbicidal effect by foliage application, Wagner pot (Table 18, symbol E); assay type: in vivo, rice flat sedge (Cyperus iria); conditions: 320 g/ha
Method in brief: (§4)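 Plants were sown in alluvial soil held under 0.1–0.5 cm standing water and grown 14 days in a greenhouse at 25–30 °C. An emulsifiable formulation, water-diluted to the set dose, was then sprayed onto the foliage, and effects were scored three weeks later using previously defined criteria.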

lambsquarters [7] = experiment: Test Example 4: herbicidal effect by soil treatment (Table 19, symbol O); assay type: in vivo, lambsquarters (Chenopodium album); conditions: amount of applied herbicide 320 g/ha
Method in brief: as §1

wild oat [8] = experiment: Test Example 5: herbicidal effect by foliage application, plastic box (Table 20, symbol I); assay type: in vivo, wild oat (Avena fatua); conditions: foliage application, 320 g/ha, three weeks after application
Method in brief: as §3

southern crabgrass [9] = experiment: Test Example 5: herbicidal effect by foliage application, plastic box (Table 20, symbol F); assay type: in vivo, southern crabgrass (Digitaria ciliaris); conditions: foliage application, 320 g/ha, three weeks after application
Method in brief: as §3

green foxtail [10] = experiment: Test Example 4: herbicidal effect by soil treatment (Table 19, symbol G); assay type: in vivo, green foxtail (Setaria viridis); conditions: amount of applied herbicide 320 g/ha
Method in brief: as §1

Chinese sprangletop = experiment: Test Example 3: herbicidal effect by foliage application, Wagner pot (Table 18, symbol D); assay type: in vivo, chinese sprangletop (Leptochloa chinensis); conditions: 320 g/ha
Method in brief: as §4

barnyard grass [11] = experiment: Test Example 5: herbicidal effect by foliage application, plastic box (Table 20, symbol H); assay type: in vivo, barnyard grass (Echinochloa crus-galli); conditions: foliage application, 320 g/ha, three weeks after application
Method in brief: as §3

barnyard grass [12] = experiment: Test Example 3: herbicidal effect by foliage application, Wagner pot (Table 18, symbol H); assay type: in vivo, barnyard grass (Echinochloa crus-galli); conditions: 320 g/ha
Method in brief: as §4

late watergrass = experiment: Test Example 1: herbicidal activity, application before weed generation under submerged conditions (Table 16, symbol A); assay type: in vivo, late watergrass (Echinochloa oryzicola); conditions: 320 g/ha applied herbicide
Method in brief: as §2

persian speedwell [13] = experiment: Test Example 4: herbicidal effect by soil treatment (Table 19, symbol R); assay type: in vivo, Persian speedwell (Veronica persica); conditions: amount of applied herbicide 320 g/ha
Method in brief: as §1

redroot pigweed [14] = experiment: Test Example 5: herbicidal effect by foliage application, plastic box (Table 20, symbol N); assay type: in vivo, redroot pigweed (Amaranthus retroflexus); conditions: foliage application, 320 g/ha, three weeks after application
Method in brief: as §3

blackgrass [15] = experiment: Test Example 4: herbicidal effect by soil treatment (Table 19, symbol J); assay type: in vivo, blackgrass (Alopecurus myosuroides); conditions: amount of applied herbicide 320 g/ha
Method in brief: as §1

green foxtail [16] = experiment: Test Example 5: herbicidal effect by foliage application, plastic box (Table 20, symbol G); assay type: in vivo, green foxtail (Setaria viridis); conditions: foliage application, 320 g/ha, three weeks after application
Method in brief: as §3

Italian ryegrass [17] = experiment: Test Example 5: herbicidal effect by foliage application, plastic box (Table 20, symbol K); assay type: in vivo, Italian ryegrass (Lolium multiflorum); conditions: foliage application, 320 g/ha, three weeks after application
Method in brief: as §3

Japanese bulrush = experiment: Test Example 1: herbicidal activity, application before weed generation under submerged conditions (Table 16, symbol B); assay type: in vivo, Japanese bulrush (Schoenoplectus juncoides); conditions: 320 g/ha applied herbicide
Method in brief: as §2

lambsquarters [18] = experiment: Test Example 5: herbicidal effect by foliage application, plastic box (Table 20, symbol O); assay type: in vivo, lambsquarters (Chenopodium album); conditions: foliage application, 320 g/ha, three weeks after application
Method in brief: as §3

wild oat [19] = experiment: Test Example 4: herbicidal effect by soil treatment (Table 19, symbol I); assay type: in vivo, wild oat (Avena fatua); conditions: amount of applied herbicide 320 g/ha
Method in brief: as §1

redroot pigweed [20] = experiment: Test Example 4: herbicidal effect by soil treatment (Table 19, symbol N); assay type: in vivo, redroot pigweed (Amaranthus retroflexus); conditions: amount of applied herbicide 320 g/ha
Method in brief: as §1

Italian ryegrass [21] = experiment: Test Example 4: herbicidal effect by soil treatment (Table 19, symbol K); assay type: in vivo, Italian ryegrass (Lolium multiflorum); conditions: amount of applied herbicide 320 g/ha
Method in brief: as §1

windgrass [22] = experiment: Test Example 4: herbicidal effect by soil treatment (Table 19, symbol L); assay type: in vivo, windgrass (Apera spica-venti); conditions: amount of applied herbicide 320 g/ha
Method in brief: as §1

persian speedwell [23] = experiment: Test Example 5: herbicidal effect by foliage application, plastic box (Table 20, symbol R); assay type: in vivo, Persian speedwell (Veronica persica); conditions: foliage application, 320 g/ha, three weeks after application
Method in brief: as §3

barnyard grass [24] = experiment: Test Example 4: herbicidal effect by soil treatment (Table 19, symbol H); assay type: in vivo, barnyard grass (Echinochloa crus-galli); conditions: amount of applied herbicide 320 g/ha
Method in brief: as §1

windgrass [25] = experiment: Test Example 5: herbicidal effect by foliage application, plastic box (Table 20, symbol L); assay type: in vivo, windgrass (Apera spica-venti); conditions: foliage application, 320 g/ha, three weeks after application
Method in brief: as §3

CCCC(=O)Oc1c(C)nn(C)c(=O)c1-c1c(-c2ccc(F)c(C)c2)sc2ccccc12 [1-052]
herbicidal effect rating, Q: false cleavers (false cleavers): 0 (Herbicidal rate of 5% or less (almost no effect))
herbicidal effect rating, M: velvetleaf (velvetleaf [1]): 0 (Herbicidal rate of 5% or less (almost no effect))
Herbicidal effect on C: oval-leafed pondweed (grade 0-5) (oval-leafed pondweed): 3 (Herbicidal rate of 40% or more and less than 70%)
herbicidal effect grade, J: blackgrass (blackgrass [2]): 0 (Herbicidal rate of 5% or less (almost no effect))
herbicidal effect rating, P: chickweed (chickweed [3]): 4 (Herbicidal rate of 70% or more and less than 90%)
herbicidal effect grade, P: chickweed (chickweed [4]): 5 (Herbicidal rate of 90% or more (almost completely withered))
herbicidal effect grade, M: velvetleaf (velvetleaf [5]): 5 (Herbicidal rate of 90% or more (almost completely withered))
herbicidal effect rating, F: southern crabgrass (southern crabgrass [6]): 1 (Herbicidal rate of 5% or more and less than 20%)
herbicidal effect on E (rice flat sedge), rating 0-5 (rice flat sedge): 5 (Herbicidal rate of 90% or more (almost completely withered))
herbicidal effect rating, O: lambsquarters (lambsquarters [7]): 2 (Herbicidal rate of 20% or more and less than 40%)
herbicidal effect grade, I: wild oat (wild oat [8]): 0 (Herbicidal rate of 5% or less (almost no effect))
herbicidal effect grade, F: southern crabgrass (southern crabgrass [9]): 2 (Herbicidal rate of 20% or more and less than 40%)
herbicidal effect rating, G: green foxtail (green foxtail [10]): 4 (Herbicidal rate of 70% or more and less than 90%)
herbicidal effect on D (Chinese sprangletop), rating 0-5 (Chinese sprangletop): 2 (Herbicidal rate of 20% or more and less than 40%)
herbicidal effect grade, H: barnyard grass (barnyard grass [11]): 3 (Herbicidal rate of 40% or more and less than 70%)
herbicidal effect on H (barnyard grass), rating 0-5 (barnyard grass [12]): 3 (Herbicidal rate of 40% or more and less than 70%)
Herbicidal effect on A: late watergrass (grade 0-5) (late watergrass): 3 (Herbicidal rate of 40% or more and less than 70%)
herbicidal effect rating, R: persian speedwell (persian speedwell [13]): 3 (Herbicidal rate of 40% or more and less than 70%)
herbicidal effect grade, N: redroot pigweed (redroot pigweed [14]): 3 (Herbicidal rate of 40% or more and less than 70%)
herbicidal effect rating, J: blackgrass (blackgrass [15]): 0 (Herbicidal rate of 5% or less (almost no effect))
herbicidal effect grade, G: green foxtail (green foxtail [16]): 5 (Herbicidal rate of 90% or more (almost completely withered))
herbicidal effect grade, K: Italian ryegrass (Italian ryegrass [17]): 0 (Herbicidal rate of 5% or less (almost no effect))
Herbicidal effect on B: Japanese bulrush (grade 0-5) (Japanese bulrush): 1 (Herbicidal rate of 5% or more and less than 20%)
herbicidal effect grade, O: lambsquarters (lambsquarters [18]): 3 (Herbicidal rate of 40% or more and less than 70%)
herbicidal effect rating, I: wild oat (wild oat [19]): 0 (Herbicidal rate of 5% or less (almost no effect))
herbicidal effect rating, N: redroot pigweed (redroot pigweed [20]): 0 (Herbicidal rate of 5% or less (almost no effect))
herbicidal effect rating, K: Italian ryegrass (Italian ryegrass [21]): 1 (Herbicidal rate of 5% or more and less than 20%)
herbicidal effect rating, L: windgrass (windgrass [22]): 0 (Herbicidal rate of 5% or less (almost no effect))
herbicidal effect grade, R: persian speedwell (persian speedwell [23]): 1 (Herbicidal rate of 5% or more and less than 20%)
herbicidal effect rating, H: barnyard grass (barnyard grass [24]): 3 (Herbicidal rate of 40% or more and less than 70%)
herbicidal effect grade, L: windgrass (windgrass [25]): 0 (Herbicidal rate of 5% or less (almost no effect))
